Results from US20220081415A1, “Amino Acid Derivatives for the Treatment of Inflammatory Diseases” (The Roskamp Institute, priority 2019, published 2022).
Read-outs that look alike come from different tables or passages of the source.

System: NF-kB activation induced by TNFα
Experiment: TNFα Luciferase assay: inhibition of NF-kB activation induced by TNFα in HEK293/NF-kB luciferase cells
Assay type: cell-based
Conditions: 25 ng/ml of TNF-α for four hours, quadruplicate, read-out: IC50, concentration at which NF-kB activation was reduced by 50%
Experimental: Determination of Inhibition of NF-kB Activation Induced by TNFα . . . In Vitro Assay
The ability of a compound disclosed herein to inhibit NFkB activation induced by TNFα was determined using the TNFα Luciferase assay. The HEK293/NF-kB luciferase cell line was obtained by cotransfection of pNFkB-luc vector with pHyg (Panomics, CA, USA) followed by hygromycin selection. HEK293/NFkB Luciferase cells were grown in DMEM medium supplemented with 10% fetal bovine serum, 100 U/ml of penicillin, 100 ng/ml of streptomycin/Fungizone, and 100 μg/ml of hygromycin B as the selecting agent. HEK293 NFkB Luciferase cells were grown in T75 flasks (Nunc™ Cell Culture Treated EasYFlasks™) in a cell culture incubator at 37° C. and 5% CO2.
Confluent T75 cell culture flasks (approximately 8-10 million of cells per flask) were washed with 10 ml of sterile PBS (without calcium and magnesium) under a biosafety cabinet. After aspiration of the PBS with a sterile glass pipette, the layer of cells (for each T75 flask) was covered with 1 ml of TrypLE™ Express without phenol red (Gibco) at room temperature. After one minute of incubation, HEK293 were mechanically resuspended in the TrypLE by tapping the side of the flask. The cells were then resuspended with 10 ml of pre-warmed complete culture medium and transferred to a conical tube. Cells were centrifuged for 5 minutes at 4000 rpm (1000 g) at room temperature. The cellular pellet was resuspended with 24 ml of pre-warmed cell culture media and […] of cell suspension (approximately 80,000 cells per well) was plated per well in 96-well cell culture plates (Costar #3599, Corning, N.Y., USA) using a multichannel pipette and reversed pipetting to prevent air bubble formation. After plating, the cells were maintained overnight in the cell culture incubator before being treated. For each 96 well cell culture plate, 8 wells were used as “control wells” (only culture medium added) and to 8 wells only TNFα was added. The NF-kB Luciferase reporter cell line was challenged with 25 ng/ml of TNF-α for four hours in the presence and absence (control conditions) of a dose range of the different compounds to be tested. For each compound, a dose range of concentrations was tested in quadruplicate and used to determine an IC50.
Luciferase activity was monitored using the Luc-Screen® Extended-Glow Luciferase Reporter Gene Assay System by chemoluminescence according to the instruction of the manufacturer (Invitrogen) and a BioTek Synergy HT plate reader (BioTek Instruments, VT, USA).

SMILES | IC50 (Homo sapiens, 4 h) [µM] | IC50 [µM]
CC(C)[C@@H](C(=O)N1CC=CC[C@H]1c1cccnc1)N1C(=O)c2ccccc2C1=O (single isomer, unassigned) [Compound 3] | 750 | 
CC(C)[C@@H](C(=O)N1CC=CC[C@@H]1c1cccnc1)N1C(=O)c2ccccc2C1=O (single isomer, unassigned) [Compound 4] | 550 | 
C[C@@H](C(=O)N1CC=CCC1c1cccnc1)N1C(=O)c2ccccc2C1=O (stereo partly drawn) [Compound 1, 2-((2S)-1-oxo-1-(6-(pyridin-3-yl)-5,6-dihydropyridin-1(2H)-yl)propan-2-yl)isoindoline-1,3-dione] | 375 | 
C[C@@H](C(=O)N1CC=CC[C@H]1c1cccnc1)N1C(=O)c2ccccc2C1=O [Compound 2, 2-((S)-1-oxo-1-((S)-6-(pyridin-3-yl)-5,6-dihydropyridin-1(2H)-yl)propan-2-yl)isoindoline-1,3-dione] | 425 | 
O=C(C(Cc1ccccc1)N1C(=O)c2ccccc2C1=O)N1CC=CCC1c1cccnc1 (stereo not shown) [Compound 7, 2-(1-oxo-3-phenyl-1-(6-(pyridin-3-yl)-5,6-dihydropyridin-1(2H)-yl)propan-2-yl)isoindoline-1,3-dione] | 225 | 
O=C1c2ccccc2C(=O)N1CC(=O)N1CC=CCC1c1cccnc1 (stereo not shown) [Compound 8, 2-(2-oxo-2-(6-(pyridin-3-yl)-5,6-dihydropyridin-1(2H)-yl)ethyl)isoindoline-1,3-dione] | 550 | 
C[C@H](NC(=O)c1cccc([N+](=O)[O-])c1)C(=O)N1CC=CCC1c1cccnc1 (stereo partly shown) [Compound 9] |  | 200
COc1cccc(C(=O)N[C@@H](C)C(=O)N2CC=CCC2c2cccnc2)c1 (stereo partly drawn) [Compound 10, 3-methoxy-N-((2S)-1-oxo-1-(6-(pyridin-3-yl)-5,6-dihydropyridin-1(2H)-yl)propan-2-yl)benzamide] | 125 | 
CCOc1ccc(C(=O)N[C@@H](C)C(=O)N2CC=CCC2c2cccnc2)cc1OCC (stereo partly drawn) [Compound 11, 3,4-diethoxy-N-((2S)-1-oxo-1-(6-(pyridin-3-yl)-5,6-dihydropyridin-1(2H)-yl)propan-2-yl)benzamide] | 250 | 
COc1ccc(C(=O)N[C@@H](C)C(=O)N2CC=CCC2c2cccnc2)cc1OC (stereo partly drawn) [Compound 12, 3,4-dimethoxy-N-((2S)-1-oxo-1-(6-(pyridin-3-yl)-5,6-dihydropyridin-1(2H)-yl)propan-2-yl)benzamide] | 470 | 
C[C@H](NC(=O)c1ccc([N+](=O)[O-])cc1)C(=O)N1CC=CCC1c1cccnc1 (stereo partly drawn) [Compound 13, 4-nitro-N-((2S)-1-oxo-1-(6-(pyridin-3-yl)-5,6-dihydropyridin-1(2H)-yl)propan-2-yl)benzamide] | 276 | 
C[C@H](NC(=O)c1ccc(Cl)cc1)C(=O)N1CC=CCC1c1cccnc1 (stereo partly drawn) [Compound 14, 4-chloro-N-((2S)-1-oxo-1-(6-(pyridin-3-yl)-5,6-dihydropyridin-1(2H)-yl)propan-2-yl)benzamide] | 170 | 
O=C(NC(Cc1ccccc1)C(=O)N1CC=CCC1c1cccnc1)c1cccc([N+](=O)[O-])c1 (stereo not shown) [Compound 15, 3-nitro-N-(1-oxo-3-phenyl-1-(6-(pyridin-3-yl)-5,6-dihydropyridin-1(2H)-yl)propan-2-yl)benzamide] | 4.3 | 
C[C@H](C(=O)N1CC=CCC1c1cccnc1)N1C(=O)c2ccccc2C1=O (stereo partly drawn) [Compound 17, 2-((2R)-1-oxo-1-(6-(pyridin-3-yl)-5,6-dihydropyridin-1(2H)-yl)propan-2-yl)isoindoline-1,3-dione] | 140 | 
O=C(NC(Cc1ccccc1)C(=O)N1CC=CCC1c1cccnc1)c1cccc(C(F)(F)F)c1 (stereo not shown) [Compound 23, N-(1-oxo-3-phenyl-1-(6-(pyridin-3-yl)-5,6-dihydropyridin-1(2H)-yl)propan-2-yl)-3-(trifluoromethyl)benzamide] | 6.5 | 

Second part, led by results:

IC50 (Homo sapiens, 4 h) [µM] | SMILES | IC50 [µM]
2 | COc1cccc(C(=O)NC(Cc2ccccc2)C(=O)N2CC=CCC2c2cccnc2)c1 (stereo not shown) [Compound 16, 3-methoxy-N-(1-oxo-3-phenyl-1-(6-(pyridin-3-yl)-5,6-dihydropyridin-1 (2H)-yl)propan-2-yl)benzamide] | 
7 | O=C(NC(Cc1ccccc1)C(=O)N1CC=CCC1c1cccnc1)c1cccc(Cl)c1 (stereo not shown) [Compound 18, 3-chloro-N-(1-oxo-3-phenyl-1-(6-(pyridin-3-yl)-5,6-dihydropyridin-1(2H)-yl)propan-2-yl)benzamide] | 
5.4 | O=C(NC(Cc1ccccc1)C(=O)N1CC=CCC1c1cccnc1)c1cccc(F)c1 (stereo not shown) [Compound 19, 3-fluoro-N-(1-oxo-3-phenyl-1-(6-(pyridin-3-yl)-5,6-dihydropyridin-1(2H)-yl)propan-2-yl)benzamide] | 
1.5 | CCOc1cccc(C(=O)NC(Cc2ccccc2)C(=O)N2CC=CCC2c2cccnc2)c1 (stereo not shown) [Compound 20, 3-ethoxy-N-(1-oxo-3-phenyl-1-(6-(pyridin-3-yl)-5,6-dihydropyridin-1(2H)-yl)propan-2-yl)benzamide] | 
4.5 | COc1ccc(C(=O)NC(Cc2ccccc2)C(=O)N2CC=CCC2c2cccnc2)cc1OC (stereo not shown) [Compound 21, 3,4-dimethoxy-N-(1-oxo-3-phenyl-1-(6-(pyridin-3-yl)-5,6-dihydropyridin-1(2H)-yl)propan-2-yl)benzamide] | 
4 | COc1cc(F)cc(C(=O)NC(Cc2ccccc2)C(=O)N2CC=CCC2c2cccnc2)c1 (stereo not shown) [Compound 24, 3-fluoro-5-methoxy-N-(1-oxo-3-phenyl-1-(6-(pyridin-3-yl)-5,6-dihydropyridin-1(2H)-yl)propan-2-yl)benzamide] | 
2.5 | COc1cccc(C(=O)N[C@H](Cc2ccccc2)C(=O)N2CC=CCC2c2cccnc2)c1 (stereo partly drawn) [Compound 25, 3-methoxy-N-((2R)-1-oxo-3-phenyl-1-(6-(pyridin-3-yl)-5,6-dihydropyridin-1(2H)-yl)propan-2-yl)benzamide] | 
2.8 | CCOc1cc(C(=O)N[C@H](Cc2ccccc2)C(=O)N2CC=CCC2c2cccnc2)ccc1OC (stereo partly drawn) [Compound 26, 3-ethoxy-4-methoxy-N-((2R)-1-oxo-3-phenyl-1-(6-(pyridin-3-yl)-5,6-dihydropyridin-1(2H)-yl)propan-2-yl)benzamide] | 
4 | COc1ccc(Cl)c(C(=O)N[C@H](Cc2ccccc2)C(=O)N2CC=CCC2c2cccnc2)c1 (stereo partly drawn) [Compound 27, 2-chloro-5-methoxy-N-((2R)-1-oxo-3-phenyl-1-(6-(pyridin-3-yl)-5,6-dihydropyridin-1(2H)-yl)propan-2-yl)benzamide] | 
6.5 | COc1cc(OC)cc(C(=O)N[C@H](Cc2ccccc2)C(=O)N2CC=CCC2c2cccnc2)c1 (stereo partly drawn) [Compound 28, 3,5-dimethoxy-N-((2R)-1-oxo-3-phenyl-1-(6-(pyridin-3-yl)-5,6-dihydropyridin-1(2H)-yl)propan-2-yl)benzamide] | 
8 | COc1ccc(C)c(C(=O)N[C@H](Cc2ccccc2)C(=O)N2CC=CCC2c2cccnc2)c1 (stereo partly drawn) [Compound 29, 5-methoxy-2-methyl-N-((2R)-1-oxo-3-phenyl-1-(6-(pyridin-3-yl)-5,6-dihydropyridin-1(2H)-yl)propan-2-yl)benzamide] | 
4.3 | COc1cc(Cl)ccc1C(=O)N[C@H](Cc1ccccc1)C(=O)N1CC=CCC1c1cccnc1 (stereo partly drawn) [Compound 30, 4-chloro-2-methoxy-N-((2R)-1-oxo-3-phenyl-1-(6-(pyridin-3-yl)-5,6-dihydropyridin-1(2H)-yl)propan-2-yl)benzamide] | 
1.7 | COc1cc(C(=O)N[C@H](Cc2ccccc2)C(=O)N2CC=CCC2c2cccnc2)ccc1F (stereo partly drawn) [Compound 31, 4-fluoro-3-methoxy-N-((2R)-1-oxo-3-phenyl-1-(6-(pyridin-3-yl)-5,6-dihydropyridin-1(2H)-yl)propan-2-yl)benzamide] | 
8.6 | COc1ccccc1C(=O)N[C@H](Cc1ccccc1)C(=O)N1CC=CCC1c1cccnc1 (stereo partly drawn) [Compound 32, 2-methoxy-N-((2R)-1-oxo-3-phenyl-1-(6-(pyridin-3-yl)-5,6-dihydropyridin-1(2H)-yl)propan-2-yl)benzamide] | 
1.8 | CCOc1cccc(C(=O)N[C@@H](Cc2ccccc2)C(=O)N2CC=CCC2c2cccnc2)c1 (stereo partly drawn) [Compound 33, 3-ethoxy-N-((2S)-1-oxo-3-phenyl-1-(6-(pyridin-3-yl)-5,6-dihydropyridin-1(2H)-yl)propan-2-yl)benzamide] | 
2.5 | COc1cc(C(=O)N[C@@H](Cc2ccccc2)C(=O)N2CC=CCC2c2cccnc2)ccc1F (stereo partly drawn) [Compound 34, 4-fluoro-3-methoxy-N-((2S)-1-oxo-3-phenyl-1-(6-(pyridin-3-yl)-5,6-dihydropyridin-1(2H)-yl)propan-2-yl)benzamide] | 
